# Laboratory results from patent publication US11582970B2, “2-aminoimidazole-phenyl derivatives useful for controlling microbial growth” (NORTH CAROLINA STATE UNIVERSITY, priority 2017, dated 2023).
# Like-named read-outs stand apart in the source and are kept apart here.
# Legend:
# Assay type in all cases: cell-based
# [1] = test system: A. baumannii (Ab) AR# 33; assay: MIC of meropenem in combination with compound, CDC carbapenem resistant strain
# Procedure: (§1) EXAMPLE 2: Six compounds were assessed for their activity in combination with meropenem against carbapenem resistant strains of A. baumannii (Ab), K. pneumoniae (Kp), and E. coli acquired from the Center for Disease Control (CDC). AR #—assigned AR-BANK number from the CDC.
# [2] = test system: A. baumannii (Ab) AR# 35; assay: as above
# Procedure: as §1
# [3] = test system: A. baumannii (Ab) AR# 36; assay: as above
# Procedure: as §1
# [4] = test system: A. baumannii (Ab) AR# 37; assay: as above
# Procedure: as §1
# [5] = test system: A. baumannii (Ab) AR# 45; assay: as above
# Procedure: as §1
# [6] = test system: A. baumannii (Ab) AR# 52; assay: as above
# Procedure: as §1
# [7] = test system: A. baumannii (Ab) AR# 56; assay: as above
# Procedure: as §1
# [8] = test system: A. baumannii (Ab) AR# 63; assay: as above
# Procedure: as §1
# [9] = test system: A. baumannii (Ab) AR# 70; assay: as above
# Procedure: as §1
# [10] = test system: A. baumannii (Ab) AR# 83; assay: as above
# Procedure: as §1
# [11] = test system: A. baumannii (Ab) AR# 88; assay: as above
# Procedure: as §1
# [12] = test system: E. coli AR# 48; assay: as above
# Procedure: as §1
# [13] = test system: E. coli AR# 55; assay: as above
# Procedure: as §1
# [14] = test system: K. pneumoniae (Kp) AR# 40; assay: as above
# Procedure: as §1
# [15] = test system: K. pneumoniae (Kp) AR# 41; assay: as above
# Procedure: as §1
# [16] = test system: K. pneumoniae (Kp) AR# 68; assay: as above
# Procedure: as §1
# [17] = test system: K. pneumoniae (Kp) AR# 98; assay: as above
# Procedure: as §1
# [18] = test system: A. baumannii AB5075; assay: MIC of carbapenems in presence and absence of 2-aminoimidazole compounds; conditions: Acinetobacter baumannii, no 2-AI compound (None)
# Excerpt: (§2) The minimal inhibitory concentration (MIC) values of imipenem (I); meropenem (M) and doripenem (D) in the presence and absence of 2-aminoimidazole compounds are provided in Table 1. The concentration of each compound used in μM in the MIC assay is shown in parentheses.
# [19] = test system: A. baumannii ATCC BAA-1605; assay: as above; conditions: Acinetobacter baumannii, no 2-AI compound (None)
# Excerpt: as §2
# [20] = test system: K. pneumoniae ATCC BAA-1705; assay: as above; conditions: Klebsiella pneumoniae, no 2-AI compound (None)
# Excerpt: as §2
# [21] = test system: K. pneumoniae ATCC BAA-2146; assay: as above; conditions: Klebsiella pneumoniae, no 2-AI compound (None)
# Excerpt: as §2
# [22] = 15 μM of 2-amino imidazole compound
# [23] = 30 μM of 2-amino imidazole compound
# [24] = 7 μM of 2-amino imidazole compound
# [25] = 64 μM of 2-amino imidazole compound
# [26] = 32 μM of 2-amino imidazole compound
# [27] = 4 μM of 2-amino imidazole compound
# [28] = 2 μM of 2-amino imidazole compound
# [29] = 60 μM of 2-amino imidazole compound
# [30] = 16 μM of 2-amino imidazole compound
# [31] = 8 μM of 2-amino imidazole compound
structure (smiles),measurement,setting,value
"CCCc1ccc(NC(=O)Nc2cccc(-c3cnc(N)[nH]3)c2)cc1 [Compound 2, 1-(3-(2-amino-1H-imidazol-5-yl)phenyl)-3-(4-propylphenyl)urea]",Minimum Inhibitory Concentration of Meropenem,[1]; [22],32 (15) μg/mL
same,Minimum Inhibitory Concentration of Meropenem,[2]; [22],16 (15) μg/mL
same,Minimum Inhibitory Concentration of Meropenem,[3]; [23],4 (30) μg/mL
same,Minimum Inhibitory Concentration of Meropenem,[4]; [22],64 (15) μg/mL
same,Minimum Inhibitory Concentration of Meropenem,[5]; [22],1.5 (15) μg/mL
same,Minimum Inhibitory Concentration of Meropenem,[6]; [22],1.5 (15) μg/mL
same,Minimum Inhibitory Concentration of Meropenem,[7]; [22],8 (15) μg/mL
same,Minimum Inhibitory Concentration of Meropenem,[8]; [23],8 (30) μg/mL
same,Minimum Inhibitory Concentration of Meropenem,[9]; [24],2 (7) μg/mL
same,Minimum Inhibitory Concentration of Meropenem,[10]; [22],96 (15) μg/mL
same,Minimum Inhibitory Concentration of Meropenem,[11]; [22],128 (15) μg/mL
same,Minimum Inhibitory Concentration of Meropenem,[12]; [25],128 (64) μg/mL
same,Minimum Inhibitory Concentration of Meropenem,[13]; [25],64 (64) μg/mL
same,Minimum Inhibitory Concentration of Meropenem,[14]; [25],1024 (64) μg/mL
same,Minimum Inhibitory Concentration of Meropenem,[15]; [25],32 (64) μg/mL
same,Minimum Inhibitory Concentration of Meropenem,[16]; [26],256 (32) μg/mL
same,Minimum Inhibitory Concentration of Meropenem,[17]; [25],64 (64) μg/mL
"Nc1ncc(-c2cccc(NC(=O)Nc3cc(Br)cc(Br)c3)c2)[nH]1 [Compound 7, 1-(3-(2-amino-1H-imidazol-5-yl)phenyl)-3-(3,5-dibromophenyl)urea]",Minimum Inhibitory Concentration of Meropenem,[1]; [22],16 (15) μg/mL
same,Minimum Inhibitory Concentration of Meropenem,[2]; [23],32 (30) μg/mL
same,Minimum Inhibitory Concentration of Meropenem,[3]; [24],8 (7) μg/mL
same,Minimum Inhibitory Concentration of Meropenem,[4]; [24],32 (7) μg/mL
same,Minimum Inhibitory Concentration of Meropenem,[5]; [22],1 (15) μg/mL
same,Minimum Inhibitory Concentration of Meropenem,[6]; [27],2 (4) μg/mL
same,Minimum Inhibitory Concentration of Meropenem,[7]; [22],8 (15) μg/mL
same,Minimum Inhibitory Concentration of Meropenem,[8]; [27],32 (4) μg/mL
same,Minimum Inhibitory Concentration of Meropenem,[9]; [28],4 (2) μg/mL
same,Minimum Inhibitory Concentration of Meropenem,[10]; [22],24 (15) μg/mL
same,Minimum Inhibitory Concentration of Meropenem,[11]; [22],64 (15) μg/mL
same,Minimum Inhibitory Concentration of Meropenem,[12]; [22],64 (15) μg/mL
same,Minimum Inhibitory Concentration of Meropenem,[13]; [22],64 (15) μg/mL
same,Minimum Inhibitory Concentration of Meropenem,[14]; [22],64 (15) μg/mL
same,Minimum Inhibitory Concentration of Meropenem,[15]; [22],8 (15) μg/mL
same,Minimum Inhibitory Concentration of Meropenem,[16]; [24],128 (7) μg/mL
same,Minimum Inhibitory Concentration of Meropenem,[17]; [24],64 (7) μg/mL
"Cc1nc(N)[nH]c1-c1cccc(NC(=O)Nc2ccc(C(F)(F)F)c(Cl)c2)c1 [Compound 68, 1-(3-(2-amino-4-methyl-1H-imidazol-5-yl)phenyl)-3-(3-chloro-4-(trifluoromethyl)phenyl)urea]",Minimum Inhibitory Concentration of Meropenem,[1]; [27],64 (4) μg/mL
same,Minimum Inhibitory Concentration of Meropenem,[2]; [27],64 (4) μg/mL
same,Minimum Inhibitory Concentration of Meropenem,[3]; [27],48 (4) μg/mL
same,Minimum Inhibitory Concentration of Meropenem,[4]; [27],64 (4) μg/mL
same,Minimum Inhibitory Concentration of Meropenem,[5]; [27],3 (4) μg/mL
same,Minimum Inhibitory Concentration of Meropenem,[6]; [27],4 (4) μg/mL
same,Minimum Inhibitory Concentration of Meropenem,[7]; [27],4 (4) μg/mL
same,Minimum Inhibitory Concentration of Meropenem,[8]; [28],128 (2) μg/mL
same,Minimum Inhibitory Concentration of Meropenem,[9]; [27],1 (4) μg/mL
same,Minimum Inhibitory Concentration of Meropenem,[10]; [27],64 (4) μg/mL
same,Minimum Inhibitory Concentration of Meropenem,[11]; [27],64 (4) μg/mL
same,Minimum Inhibitory Concentration of Meropenem,[12]; [27],128 (4) μg/mL
same,Minimum Inhibitory Concentration of Meropenem,[13]; [27],64 (4) μg/mL
same,Minimum Inhibitory Concentration of Meropenem,[14]; [24],64 (7) μg/mL
same,Minimum Inhibitory Concentration of Meropenem,[15]; [27],64 (4) μg/mL
same,Minimum Inhibitory Concentration of Meropenem,[16]; [24],128 (7) μg/mL
same,Minimum Inhibitory Concentration of Meropenem,[17]; [24],32 (7) μg/mL
"Nc1ncc(-c2cccc(NC(=O)Nc3cccc(-c4cnc(N)[nH]4)c3)c2)[nH]1 [Compound 92, 1,3-bis(3-(2-amino-1H-imidazol-5-yl)phenyl)urea]",Minimum Inhibitory Concentration of Meropenem,[1]; [22],12 (15) μg/mL
same,Minimum Inhibitory Concentration of Meropenem,[2]; [23],8 (30) μg/mL
same,Minimum Inhibitory Concentration of Meropenem,[3]; [22],4 (15) μg/mL
same,Minimum Inhibitory Concentration of Meropenem,[4]; [22],32 (15) μg/mL
same,Minimum Inhibitory Concentration of Meropenem,[5]; [24],2 (7) μg/mL
same,Minimum Inhibitory Concentration of Meropenem,[6]; [28],2 (2) μg/mL
same,Minimum Inhibitory Concentration of Meropenem,[7]; [22],8 (15) μg/mL
same,Minimum Inhibitory Concentration of Meropenem,[8]; [24],8 (7) μg/mL
same,Minimum Inhibitory Concentration of Meropenem,[9]; [28],4 (2) μg/mL
same,Minimum Inhibitory Concentration of Meropenem,[10]; [22],64 (15) μg/mL
same,Minimum Inhibitory Concentration of Meropenem,[11]; [22],64 (15) μg/mL
same,Minimum Inhibitory Concentration of Meropenem,[12]; [24],256 (7) μg/mL
same,Minimum Inhibitory Concentration of Meropenem,[13]; [22],128 (15) μg/mL
same,Minimum Inhibitory Concentration of Meropenem,[14]; [29],256 (60) μg/mL
same,Minimum Inhibitory Concentration of Meropenem,[15]; [29],64 (60) μg/mL
same,Minimum Inhibitory Concentration of Meropenem,[16]; [23],64 (30) μg/mL
same,Minimum Inhibitory Concentration of Meropenem,[17]; [29],64 (60) μg/mL
"Nc1ncc(-c2ccc(NC(=O)Nc3ccc(-c4cnc(N)[nH]4)cc3)cc2)[nH]1 [Compound 93, 1,3-bis(4-(2-amino-1H-imidazol-5-yl)phenyl)urea]",Minimum Inhibitory Concentration of Meropenem,[1]; [24],64 (7) μg/mL
same,Minimum Inhibitory Concentration of Meropenem,[2]; [22],32 (15) μg/mL
same,Minimum Inhibitory Concentration of Meropenem,[3]; [22],16 (15) μg/mL
same,Minimum Inhibitory Concentration of Meropenem,[4]; [24],64 (7) μg/mL
same,Minimum Inhibitory Concentration of Meropenem,[5]; [24],2 (7) μg/mL
same,Minimum Inhibitory Concentration of Meropenem,[6]; [27],3 (4) μg/mL
same,Minimum Inhibitory Concentration of Meropenem,[7]; [22],16 (15) μg/mL
same,Minimum Inhibitory Concentration of Meropenem,[8]; [22],8 (15) μg/mL
same,Minimum Inhibitory Concentration of Meropenem,[9]; [24],1 (7) μg/mL
same,Minimum Inhibitory Concentration of Meropenem,[10]; [22],64 (15) μg/mL
same,Minimum Inhibitory Concentration of Meropenem,[11]; [24],64 (7) μg/mL
same,Minimum Inhibitory Concentration of Meropenem,[12]; [26],16 (32) μg/mL
same,Minimum Inhibitory Concentration of Meropenem,[13]; [30],128 (16) μg/mL
same,Minimum Inhibitory Concentration of Meropenem,[14]; [25],1024 (64) μg/mL
same,Minimum Inhibitory Concentration of Meropenem,[15]; [25],8 (64) μg/mL
same,Minimum Inhibitory Concentration of Meropenem,[16]; [26],32 (32) μg/mL
same,Minimum Inhibitory Concentration of Meropenem,[17]; [26],32 (32) μg/mL
"Nc1ncc(-c2ccc(NC(=O)Nc3ccc4c(c3)-c3[nH]c(N)nc3CC4)cc2)[nH]1 [Compound 97, 1-(4-(2-amino-1H-imidazol-5-yl)phenyl)-3-(2-amino-4,5-dihydro-1H-naphtho[1,2-d]imidazol-8-yl)urea]",Minimum Inhibitory Concentration of Meropenem,[1]; [30],4 (16) μg/mL
same,Minimum Inhibitory Concentration of Meropenem,[2]; [31],2 (8) μg/mL
same,Minimum Inhibitory Concentration of Meropenem,[3]; [31],1 (8) μg/mL
same,Minimum Inhibitory Concentration of Meropenem,[4]; [31],32 (8) μg/mL
same,Minimum Inhibitory Concentration of Meropenem,[5]; [31],1 (8) μg/mL
same,Minimum Inhibitory Concentration of Meropenem,[6]; [28],2 (2) μg/mL
same,Minimum Inhibitory Concentration of Meropenem,[7]; [31],2 (8) μg/mL
same,Minimum Inhibitory Concentration of Meropenem,[8]; [31],8 (8) μg/mL
same,Minimum Inhibitory Concentration of Meropenem,[9]; [31],0.5 (8) μg/mL
same,Minimum Inhibitory Concentration of Meropenem,[10]; [31],16 (8) μg/mL
same,Minimum Inhibitory Concentration of Meropenem,[11]; [30],32 (16) μg/mL
same,Minimum Inhibitory Concentration of Meropenem,[12]; [30],128 (16) μg/mL
same,Minimum Inhibitory Concentration of Meropenem,[13]; [26],256 (32) μg/mL
same,Minimum Inhibitory Concentration of Meropenem,[14]; [25],1024 (64) μg/mL
same,Minimum Inhibitory Concentration of Meropenem,[15]; [25],16 (64) μg/mL
same,Minimum Inhibitory Concentration of Meropenem,[16]; [26],64 (32) μg/mL
same,Minimum Inhibitory Concentration of Meropenem,[17]; [30],32 (16) μg/mL
"C[C@@H](O)[C@H]1C(=O)N2C(C(=O)O)=C(S[C@@H]3CN[C@H](CNS(N)(=O)=O)C3)[C@H](C)[C@H]12 [D, doripenem]",MIC,[18]; read-out: MIC of doripenem (D),32 µg/mL
same,MIC,[19]; read-out: MIC of doripenem (D),32 µg/mL
same,MIC,[20]; read-out: MIC of doripenem (D),64 µg/mL
same,MIC,[21]; read-out: MIC of doripenem (D),256 µg/mL
"C[C@@H](O)[C@H]1C(=O)N2C(C(=O)O)=C(SCCN=CN)C[C@H]12 [I, imipenem]",MIC,[18]; read-out: MIC of imipenem (I),32 µg/mL
same,MIC,[19]; read-out: MIC of imipenem (I),32 µg/mL
same,MIC,[20]; read-out: MIC of imipenem (I),64 µg/mL
same,MIC,[21]; read-out: MIC of imipenem (I),128 µg/mL
